Common to all, as to assay: Kinase panel assay (SelectScreen Kinase Profiling, Invitrogen)
What all share (format): biochemical
Common to all, as to conditions: 1000 nM of compound B26

Test [1] has as its target MAP4K5 (KHS1) (Homo sapiens, UniProt Q9Y4K4). As for the experimental part: (§1) The kinase panel assay of compound B26 of this invention was performed by SelectScreen® Kinase Profiling Services of Invitrogen. The inhibitory effects of 1000 nM of compound B26 against various kinases whom shown >50% inhibitory effects are summarized in following Table 5.
The target in test [2] is NTRK1 (TRKA) (Homo sapiens, UniProt P04629). As for the experimental part: as §1
In test [3] the target is FGR (Homo sapiens, UniProt P09769). As for the experimental part: as §1
FGR, sequence (P09769 whole entry): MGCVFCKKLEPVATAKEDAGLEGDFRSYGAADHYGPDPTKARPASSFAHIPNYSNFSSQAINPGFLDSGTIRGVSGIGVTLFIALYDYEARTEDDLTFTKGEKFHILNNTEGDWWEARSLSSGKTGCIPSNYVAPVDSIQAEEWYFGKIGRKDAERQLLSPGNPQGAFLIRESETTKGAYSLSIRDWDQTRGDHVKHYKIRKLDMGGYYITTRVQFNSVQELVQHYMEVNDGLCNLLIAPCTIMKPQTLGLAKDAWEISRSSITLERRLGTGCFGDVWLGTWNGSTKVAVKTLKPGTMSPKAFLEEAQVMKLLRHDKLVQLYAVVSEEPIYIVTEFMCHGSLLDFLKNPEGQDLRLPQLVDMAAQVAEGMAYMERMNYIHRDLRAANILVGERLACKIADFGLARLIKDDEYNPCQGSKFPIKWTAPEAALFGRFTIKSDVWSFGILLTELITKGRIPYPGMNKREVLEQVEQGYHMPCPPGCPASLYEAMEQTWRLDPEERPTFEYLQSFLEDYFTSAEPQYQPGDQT
Test [4] concerns the target FLT4 (VEGFR3) (Homo sapiens, UniProt P35916). Here is the method:
as §1

In test [5] the target is CSF1R (FMS) (Homo sapiens, UniProt P07333). As for the experimental part:
as §1

In test [6] the target is AMPK A2/B1/G1 (Homo sapiens, UniProt P54646). Here is the method: as §1
For test [7], the target named is PHKG1 (Homo sapiens, UniProt Q16816). Here is the method:
as §1

In test [8] the target is BLK (Homo sapiens, UniProt P51451). Here is the method: as §1
BLK, sequence (P51451 whole entry): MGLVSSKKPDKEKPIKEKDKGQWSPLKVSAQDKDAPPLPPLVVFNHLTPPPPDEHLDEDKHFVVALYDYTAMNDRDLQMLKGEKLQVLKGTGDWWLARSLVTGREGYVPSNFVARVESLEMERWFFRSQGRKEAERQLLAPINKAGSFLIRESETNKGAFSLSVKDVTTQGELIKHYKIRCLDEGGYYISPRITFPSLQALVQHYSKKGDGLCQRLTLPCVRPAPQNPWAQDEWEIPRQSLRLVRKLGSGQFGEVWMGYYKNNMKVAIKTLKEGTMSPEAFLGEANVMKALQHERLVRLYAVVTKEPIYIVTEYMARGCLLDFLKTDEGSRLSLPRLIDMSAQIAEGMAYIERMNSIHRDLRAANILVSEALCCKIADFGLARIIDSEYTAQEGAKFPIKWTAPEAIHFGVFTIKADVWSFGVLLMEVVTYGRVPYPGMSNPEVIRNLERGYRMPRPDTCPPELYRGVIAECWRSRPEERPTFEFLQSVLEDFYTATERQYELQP
For test [9], the target named is SRC (Homo sapiens, UniProt P12931). As for the experimental part:
as §1

Test [10] deals with NTRK3 (TRKC) (Homo sapiens, UniProt Q16288). As for the experimental part: as §1
Test [11] addresses FLT3 D835Y (Homo sapiens, UniProt P36888, D835Y). Here is the method: as §1
Test [12] addresses NTRK2 (TRKB) (Homo sapiens, UniProt Q16620). As for the experimental part:
as §1

Test [13] has as its target FGFR2 (Homo sapiens, UniProt P21802). As for the experimental part: as §1
For test [14], the target named is LCK (Homo sapiens, UniProt P06239). As for the experimental part: as §1
LCK, sequence (P06239 whole entry): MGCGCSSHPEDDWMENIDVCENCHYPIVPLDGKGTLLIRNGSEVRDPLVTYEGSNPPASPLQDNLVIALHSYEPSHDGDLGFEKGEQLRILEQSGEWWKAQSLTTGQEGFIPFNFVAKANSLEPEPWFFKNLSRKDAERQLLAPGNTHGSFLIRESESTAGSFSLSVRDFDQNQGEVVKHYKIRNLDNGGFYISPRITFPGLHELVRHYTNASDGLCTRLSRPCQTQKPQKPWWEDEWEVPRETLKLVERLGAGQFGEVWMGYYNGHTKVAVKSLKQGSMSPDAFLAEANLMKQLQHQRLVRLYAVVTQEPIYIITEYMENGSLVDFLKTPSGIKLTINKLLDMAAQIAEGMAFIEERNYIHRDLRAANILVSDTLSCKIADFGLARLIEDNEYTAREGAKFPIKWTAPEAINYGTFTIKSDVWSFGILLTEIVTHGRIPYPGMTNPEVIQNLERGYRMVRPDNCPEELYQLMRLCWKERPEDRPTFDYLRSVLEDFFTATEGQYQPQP
Test [15] has as its target AMPK A1/B1/G1 (Homo sapiens, UniProt Q13131). Here is the method: as §1
Test [16] deals with FGFR1 (Homo sapiens, UniProt P11362). Here is the method: as §1
The target of test [17] is KDR (VEGFR2) (Homo sapiens, UniProt P35968). As for the experimental part:
as §1

FLT4 (VEGFR3), sequence (P35916 25-1363): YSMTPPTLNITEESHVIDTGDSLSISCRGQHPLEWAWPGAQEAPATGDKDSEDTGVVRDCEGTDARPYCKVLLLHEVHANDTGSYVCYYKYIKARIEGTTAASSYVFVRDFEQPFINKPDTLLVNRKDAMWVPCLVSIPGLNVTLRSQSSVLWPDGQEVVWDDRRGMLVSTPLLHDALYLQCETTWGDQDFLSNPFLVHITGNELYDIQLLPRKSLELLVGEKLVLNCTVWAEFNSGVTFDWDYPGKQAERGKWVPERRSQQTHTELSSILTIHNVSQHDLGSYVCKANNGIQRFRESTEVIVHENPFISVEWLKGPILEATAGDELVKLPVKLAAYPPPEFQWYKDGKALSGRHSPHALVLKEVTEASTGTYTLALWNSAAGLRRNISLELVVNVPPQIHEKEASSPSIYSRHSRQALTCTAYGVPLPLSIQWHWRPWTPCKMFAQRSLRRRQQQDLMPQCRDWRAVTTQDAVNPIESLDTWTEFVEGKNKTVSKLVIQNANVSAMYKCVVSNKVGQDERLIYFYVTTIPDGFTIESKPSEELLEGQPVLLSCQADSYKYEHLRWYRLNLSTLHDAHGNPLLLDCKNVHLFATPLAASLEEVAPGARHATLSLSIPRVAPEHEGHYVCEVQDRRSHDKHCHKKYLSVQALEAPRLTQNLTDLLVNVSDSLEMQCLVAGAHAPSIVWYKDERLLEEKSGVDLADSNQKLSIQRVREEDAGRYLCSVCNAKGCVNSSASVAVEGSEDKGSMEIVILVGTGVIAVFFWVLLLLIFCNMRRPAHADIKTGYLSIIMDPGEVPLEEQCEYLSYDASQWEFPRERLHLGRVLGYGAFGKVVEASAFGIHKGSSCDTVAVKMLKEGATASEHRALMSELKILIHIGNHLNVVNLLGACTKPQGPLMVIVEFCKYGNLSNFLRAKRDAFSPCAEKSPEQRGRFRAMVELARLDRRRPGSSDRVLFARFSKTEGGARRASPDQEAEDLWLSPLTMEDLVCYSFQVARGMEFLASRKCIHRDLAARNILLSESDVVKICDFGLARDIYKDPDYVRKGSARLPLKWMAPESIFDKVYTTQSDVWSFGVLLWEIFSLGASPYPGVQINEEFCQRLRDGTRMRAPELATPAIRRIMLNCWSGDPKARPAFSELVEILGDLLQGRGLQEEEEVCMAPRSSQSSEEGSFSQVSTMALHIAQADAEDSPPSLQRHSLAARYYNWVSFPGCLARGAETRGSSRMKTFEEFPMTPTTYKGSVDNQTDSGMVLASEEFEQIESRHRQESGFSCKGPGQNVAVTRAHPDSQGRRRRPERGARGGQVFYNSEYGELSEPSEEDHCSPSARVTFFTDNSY
AMPK A1/B1/G1, sequence (Q13131 whole entry): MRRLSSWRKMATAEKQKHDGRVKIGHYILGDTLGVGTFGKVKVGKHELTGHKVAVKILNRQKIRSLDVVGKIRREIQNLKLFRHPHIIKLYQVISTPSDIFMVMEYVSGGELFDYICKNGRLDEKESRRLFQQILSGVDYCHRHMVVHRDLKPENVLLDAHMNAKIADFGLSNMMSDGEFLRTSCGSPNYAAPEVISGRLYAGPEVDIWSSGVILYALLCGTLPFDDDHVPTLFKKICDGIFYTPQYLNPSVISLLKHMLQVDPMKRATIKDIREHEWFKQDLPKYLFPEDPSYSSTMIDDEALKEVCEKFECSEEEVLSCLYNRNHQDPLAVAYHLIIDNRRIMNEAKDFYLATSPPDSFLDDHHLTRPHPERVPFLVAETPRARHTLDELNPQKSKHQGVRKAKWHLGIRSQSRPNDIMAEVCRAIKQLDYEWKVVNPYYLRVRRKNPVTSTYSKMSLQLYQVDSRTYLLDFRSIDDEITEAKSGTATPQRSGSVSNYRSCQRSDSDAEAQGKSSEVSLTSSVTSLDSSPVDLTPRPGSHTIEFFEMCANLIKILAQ
AMPK A1/B1/G1, sequence (Q9Y478 whole entry partner): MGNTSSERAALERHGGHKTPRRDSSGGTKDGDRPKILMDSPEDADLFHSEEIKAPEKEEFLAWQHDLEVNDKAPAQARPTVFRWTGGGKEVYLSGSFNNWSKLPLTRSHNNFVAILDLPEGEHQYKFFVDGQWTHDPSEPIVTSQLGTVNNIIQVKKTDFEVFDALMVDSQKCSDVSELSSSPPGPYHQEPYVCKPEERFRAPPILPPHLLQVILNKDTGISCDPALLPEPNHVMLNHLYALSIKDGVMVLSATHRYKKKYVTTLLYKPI
AMPK A1/B1/G1, sequence (P54619 whole entry partner): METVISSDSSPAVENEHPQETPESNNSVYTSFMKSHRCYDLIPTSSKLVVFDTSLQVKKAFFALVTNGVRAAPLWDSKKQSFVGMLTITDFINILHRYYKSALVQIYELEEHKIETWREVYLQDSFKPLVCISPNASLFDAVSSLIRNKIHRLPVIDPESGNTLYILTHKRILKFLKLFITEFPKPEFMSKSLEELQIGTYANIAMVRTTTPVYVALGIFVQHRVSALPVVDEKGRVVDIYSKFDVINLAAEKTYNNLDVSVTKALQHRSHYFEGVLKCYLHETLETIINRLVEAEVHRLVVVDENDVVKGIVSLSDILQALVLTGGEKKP
CSF1R (FMS), sequence (P07333 20-972): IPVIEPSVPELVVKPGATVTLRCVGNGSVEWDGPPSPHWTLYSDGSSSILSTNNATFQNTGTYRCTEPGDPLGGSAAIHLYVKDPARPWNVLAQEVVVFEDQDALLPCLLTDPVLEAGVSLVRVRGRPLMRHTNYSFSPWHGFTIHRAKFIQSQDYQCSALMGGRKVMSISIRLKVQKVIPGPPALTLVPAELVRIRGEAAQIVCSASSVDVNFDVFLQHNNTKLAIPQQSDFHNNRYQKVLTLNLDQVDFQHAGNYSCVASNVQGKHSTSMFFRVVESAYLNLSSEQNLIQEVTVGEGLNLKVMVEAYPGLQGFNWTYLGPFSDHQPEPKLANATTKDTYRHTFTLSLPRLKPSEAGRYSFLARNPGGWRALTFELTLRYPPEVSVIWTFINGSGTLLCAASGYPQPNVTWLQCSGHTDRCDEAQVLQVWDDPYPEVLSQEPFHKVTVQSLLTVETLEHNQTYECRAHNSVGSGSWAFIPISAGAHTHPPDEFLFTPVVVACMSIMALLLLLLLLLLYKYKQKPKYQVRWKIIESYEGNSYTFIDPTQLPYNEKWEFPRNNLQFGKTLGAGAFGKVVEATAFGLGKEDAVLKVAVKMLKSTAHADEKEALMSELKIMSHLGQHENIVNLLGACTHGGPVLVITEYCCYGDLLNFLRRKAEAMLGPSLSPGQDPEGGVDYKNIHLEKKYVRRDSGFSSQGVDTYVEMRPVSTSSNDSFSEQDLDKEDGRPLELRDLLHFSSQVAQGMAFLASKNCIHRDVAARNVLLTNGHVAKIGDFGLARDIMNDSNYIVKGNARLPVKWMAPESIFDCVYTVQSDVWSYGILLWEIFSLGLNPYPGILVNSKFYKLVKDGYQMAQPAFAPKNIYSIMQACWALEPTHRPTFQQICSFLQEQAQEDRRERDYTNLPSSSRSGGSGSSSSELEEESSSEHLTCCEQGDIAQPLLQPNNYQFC

For `CN1CCN(c2ccc3[nH]c(-c4c5cccccc-5[nH]c4=O)nc3c2)CC1` [Compound B26], the inhibition (as a rule, the drop in the measured response relative to a control, in per cent) at 1 µM amounted to 60% in test [1]; 89% in [2]; 69% in test [3]; 50% in test [4]; 60% in test [5]; 70% in test [6]. Also, the inhibition at 1 µM in [7] was 53%; in test [8], 52%; in test [9] it was 50%; in [10], 76%; in test [11], 98%; in test [12] it was 84%. Besides, the inhibition at 1 µM in [13] is 48%; in test [14], 63%; in [15] it was 88%; in test [16], 54%; in test [17] it was 64%.

These data come from US8492374B2, “Azaazulene compounds” (Industrial Technology Research Institute, priority 2009, dated 2013).
